Reference: patent US20120225093A1, “Abrogating HIV-1 Infection via Drug-Induced Reactivation of Apoptosis” (UNIVERSITY OF MEDICINE AND DENTISTRY OF NEW JERSEY, priority 2010, published 2012)

Key:
uninfected H9 cells = experiment: 89-kDa PARP fragment by flow cytometry in uninfected H9 cells; format: cell-based; settings: 30 μM CPX, 24 hr
Protocol: (§1) Intracellular antigens were determined, as geometric means of fluorescence, by flow cytometric analysis using a BD FACSCalibur™ and its BD FACStation System™ (Becton Dickinson; San Jose, Calif.). Intracellular antigens were stained according to the instrument producer's instructions. Anti-HIV-1 Tat antibody was from Abcam Inc. (Cambridge, Mass.); anti-HIV-1 Vpr from Santa Cruz Biotechnology (Santa Cruz, Calif.); anti-HIV-1 Rev from Advanced Biotechnologies Inc. (Columbia, Md.); anti-HIV-1 p24 (KC57) from Beckman Coulter, Miami, Fla.; monoclonal C92-605 anti-human caspase-3 (active form) from Pharmingen (BD Biosciences, San Diego, Calif.); monoclonal F21-852 anti-human poly (ADP-ribose) polymerase (caspase-cleaved 89-kDa fragment); and monoclonal 6C8 anti-human Bcl-2 from Becton Dickinson (BD Biosciences; San Diego, Calif.).
To determine whether the differential effects of the drugs extend into late apoptosis, PARP fragmentation in H9 and H9-HIV cells was measured. CPX caused an ˜8-fold increase in H9-HIV cells positive for 89-kDa PARP, compared to a ˜2 fold increase in H9 cells (FIG. 9A). By 24 hr, twice as many cells stained positive for 89-kDa PARP in the infected cultures as in uninfected cultures (27% compared to 14%; FIG. 9B). […]

H9-HIV cells [1] = experiment: 89-kDa PARP fragment by flow cytometry in H9-HIV cells; format: cell-based; settings: 30 μM CPX, 24 hr
Protocol: as §1
To determine whether the differential effects of the drugs extend into late apoptosis, PARP fragmentation in H9 and H9-HIV cells was measured. CPX caused an ˜8-fold increase in H9-HIV cells positive for 89-kDa PARP, compared to a ˜2 fold increase in H9 cells (FIG. 9A). By 24 hr, twice as many cells stained positive for 89-kDa PARP in the infected cultures as in uninfected cultures (27% compared to 14%; FIG. 9B). […] It is concluded that the retroviral suppression of initiation and execution of apoptosis is reversed by the drugs and transformed into enhanced susceptibility of HIV-infected cells to apoptosis.

H9-HIV cells [2] = experiment: TUNEL DNA fragmentation in H9-HIV cells; format: cell-based; settings: 24 hr; between 10 and 20 μM CPX, leveled off at 40 μM
Protocol: (§2) The potential across the mitochondrial membrane of live cells was determined flow-cytometrically with the lipophilic cationic fluorochrome JC-1 (5,5′,6,6′-tetrachloro-1,1′,3,3′-tetraethylbenzimidazolcarbocyanine iodide) immediately after sample harvest (BD™ Mitoscreen Kit, BD Biosciences; San Diego, Calif.). DNA fragmentation was quantified flow-cytometrically, using a TUNEL (terminal deoxynucleotide transferase dUTP nick end-labeling) assay (APO-BRDU™; Phoenix Flow Systems; San Diego, Calif.) and a dual-color assay for annexin V binding and 7-AAD exclusion (Annexin V-PE 7-AAD Apoptosis Detection Kit I™; BD Biosciences Pharmingen, San Jose, Calif.). The apoptotic volume decrease of cells was assessed by the reduction of their diameter (VI-CELL™; Beckman Coulter; Fullerton, Calif.).
The relationship between iron chelation and apoptosis was assessed using the TUNEL assay to measure DNA fragmentation. DEF induces this late apoptotic event in HIV-expressing ACH-2 cells. Similarly, CPX triggered DNA fragmentation in H9-HIV cells in a dose-dependent manner with a steep, almost 10-fold increase in TUNEL-positive cells between 10 and 20 μM CPX that leveled off at 40 μM (FIG. 11C). […]

HIV-infected PBMCs = experiment: TUNEL apoptosis in HIV-1 exposed PBMC cultures; format: cell-based, human; settings: CPX 30 μM
Protocol: Uninfected PBMCs were co-incubated with infected PBMC stock in 24-well microplates at 2 ml/well Medium B, at a 10:1 ratio of uninfected-to-infected cells, and a total cell number of 1×10^6. Cultures were maintained and assayed for 6 consecutive days. CPX or Agent P2 was added at the time of inoculation or 12 hr later. Leaving the cell layer undisturbed, half the medium in each well was replenished every day, with concurrent adjustment of compound concentration. On each day during the 6-day experiments, a set of wells was harvested: the cells were processed for determination of viability and apoptosis, and the cell-free supernatants were stored at −80° C. for p24 and viral RNA measurements. […]
as §2, with “The apoptotic volume decrease of cells was assessed by the reduction of their diameter (VI-CELL™; Beckman Coulter; Fullerton, Calif.).” left out

HIV-1 = experiment: Small trial of virological response to DEF in HIV-infected volunteers; format: in vivo, human

SMILES | cells positive for 89-kDa PARP (uninfected H9 cells) [%] | increase in cells positive for 89-kDa PARP (uninfected H9 cells; relative to untreated) [fold] | 89-kDa PARP fluorescence intensity, infected versus uninfected (H9-HIV cells [1]) | cells positive for 89-kDa PARP (H9-HIV cells [1]) [%] | increase in cells positive for 89-kDa PARP (H9-HIV cells [1]; relative to untreated) [fold] | increase in TUNEL-positive cells (H9-HIV cells [2]) [fold] | apoptotic (TUNEL-positive) cells (HIV-infected PBMCs; 144 hr after inoculation) | increase in proportion of TUNEL-positive PBMCs (HIV-infected PBMCs; HIV-infected cultures) [fold] | virological response after drug withdrawal (HIV-1)
Cc1cc(C2CCCCC2)n(O)c(=O)c1 [CPX, 6-cyclohexyl-1-hydroxy-4-methylpyridin-2[1H]-one] | 14 | ~2 | approximately one order of magnitude higher | 27 | ~8 | ~10 | 71.8% (±8.8%) | ~10 | 
Cc1c(O)c(=O)ccn1C [DEF, 3-hydroxy-1,2-dimethylpyridin-4(1H)-one] |  |  |  |  |  |  |  |  | persistent off-medicine antiretroviral activity even eight weeks after drug withdrawal
